Reference: PMC3892053, “Pharmacokinetic/pharmacodynamic modeling for the determination of a cimicoxib dosing regimen in the dog” (BMC Veterinary Research, 2013)
≈ marks a conversion by molar mass, not a printed value. Where two headings read alike, the source gives them in different places.

How the values were obtained:
COX-2 = system: COX-2; parameters: method as in PMID 12877584; details: human whole blood assay, cited from earlier work
[1] = Plasma pharmacokinetics after single oral administration in beagle dogs (Study 1); type: in vivo, dog; details: mean ± SD; for half-life: beagle, dog, plasma, po, 2 mg/kg, read-out: terminal half-life (converted)
Experimental: The study was conducted according to a classical 2×2 crossover design. Briefly, in period one, half of the dog (3 males and 3 females), received a single oral dose of cimicoxib (approximately 2 mg/kg, one 20 mg capsules – Vetoquinol Lure france) 26.5 h after the induction of kaolin inflammation on the left paw; the other half dogs received a placebo treatment at the same time. In period 2, treatments were crossed over for each dog and inflammation was induced on the right paw. A wash-out delay of at least 5 weeks was applied between the two periods. The treatment (cimicoxib or placebo) was blinded to the investigators.
Blood samples (5 mL, heparinized tubes) were obtained from the jugular vein by direct puncture just before inflammation to perform a biochemical checkup of the animals at the beginning of the experiment. Time 0 was defined as the time of treatment administration. Blood samples (5 mL, heparinized tubes) were collected at time 0 (just before cimicoxib or placebo administration) and then at times 30, 60, 90 min, and, 4, 6, 9, 15, 30 and 48 hours post-treatment. Tubes were centrifuged at 3000 G and plasma samples were stored at -20°C.
Plasma samples were analyzed by a High Performance Liquid Chromatography (HPLC) method using ultraviolet (UV) detection. Briefly, an internal standard (UR-8877) and cimicoxib (UR-8880) were extracted from plasma by a solid liquid (methanol) extraction process using HLB Oasis cartridges (Waters). The extraction yield was about 90%. The HPLC apparatus consists of a pump system equipped with an automatic injector and an UV detector (242 nm). […] The validated limit of quantification was 0.01 μg/mL.
Pharmacokinetic and PK/PD modeling were performed by least-squares regression analysis using WinNonlin Professional software (WinNonlin® software, version 4.0.1, Pharsight Corporation, Mountain View, Ca, USA). […] The number of exponential (2 or 3) terms needed to obtain the best fit for each data set was determined by the Akaike’s information criteria and by inspecting the plot of residuals. […]

[2] = system: kaolin-induced paw inflammation; test: Simulation of dose-effect relationship with the PK/PD model (EM dog parameters); details: simulated, oral, dose-linearity assumed
Experimental: For higher cimicoxib doses, only the duration of the maximum effect was increased. […] Figure 6 Simulated values of the effects of the cimicoxib for different oral doses of cimicoxib for the 4 endpoints modeled using a PK/PD model in the 8 extensive metabolizer dogs. Effects of cimicoxib vs. time (h) were simulated using the corresponding PK/PD model for different oral doses of cimicoxib (from 0.1 to 8 mg/kg) on the rectal temperature (°C), the normalized vertical ground reaction force of the paw, the creeping speed (m/s) and the overall clinical lameness score. PK and PD parameters used for simulations were the means of those obtained in the 8 extensive metabolizer dogs. The thick line was obtained with 2 mg/kg, the dose that has been selected for confirmatory clinical trials.

[3] = system: peri-operative pain; pain and inflammation associated with osteoarthritis; details: inferiority limit 20%, cited from earlier work

half-life ([1]; EM beagle dogs (n = 8)): 4.6 ± 2.6 h | half-life ([1]; PM beagle dogs (n = 4)): 8 ± 0.6 h | terminal half-life ([1]; oral 2 mg/kg, EM beagle dogs (n = 8)): 2.9 ± 0.9 h
Compound: COc1ccc(-c2c(Cl)ncn2-c2ccc(S(N)(=O)=O)cc2)cc1F [cimicoxib]
IC50 COX-2 inhibition (COX-2): 0.025 µg/mL (≈ 0.0655 µM) | IC50 (COX-2; read-out: IC50 COX-2 inhibition): 66 nM | dose predicted to give a nearly maximal effect, creeping speed [2]: 1.5 mg/kg | dose predicted to give a nearly maximal effect, ground reaction vertical force [2]: 3 mg/kg | dose predicted to give a nearly maximal effect, overall clinical lameness score [2]: 2 mg/kg | dose predicted to give a nearly maximal effect, rectal temperature [2]: 1 mg/kg | comparison against firocoxib, primary efficacy endpoint ([3]; pain and inflammation associated with osteoarthritis): non-inferiority | comparison to carprofen on pain during the first 24 hours (composite pain clinical score) ([3]; peri-operative pain, orthopaedic or soft tissue surgery, carprofen 4 mg/kg per day): non-inferiority
